Structures can show the parent of a compound that is named as a salt.

These results are taken from patent US20120214822A1 (ASTRAZENECA AB, priority 2007, published 2012).

The target in the assay is human active recombinant p38α-6His tagged (Homo sapiens, UniProt Q16539). Briefly: P38 Alpha Enzyme Assay (AlphaScreen, biotinylated-ATF2 substrate).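 Note: 0.5 nM final p38α, reaction started with ATP and run 45 min at 37 °C, phospho-ATF2 read by antibody-based AlphaScreen, background wells quenched with EDTA before ATP.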 The assay is classed as biochemical. The settings on record: p38 alpha enzyme inhibition; means of replicate determinations; 4 h pre-incubation at 37° C.; SD of assay 0.2-0.3 log units. In general terms: Alpha assays give light when donor and acceptor beads are brought close together.
human active recombinant p38α-6His tagged, sequence (Q16539 whole entry): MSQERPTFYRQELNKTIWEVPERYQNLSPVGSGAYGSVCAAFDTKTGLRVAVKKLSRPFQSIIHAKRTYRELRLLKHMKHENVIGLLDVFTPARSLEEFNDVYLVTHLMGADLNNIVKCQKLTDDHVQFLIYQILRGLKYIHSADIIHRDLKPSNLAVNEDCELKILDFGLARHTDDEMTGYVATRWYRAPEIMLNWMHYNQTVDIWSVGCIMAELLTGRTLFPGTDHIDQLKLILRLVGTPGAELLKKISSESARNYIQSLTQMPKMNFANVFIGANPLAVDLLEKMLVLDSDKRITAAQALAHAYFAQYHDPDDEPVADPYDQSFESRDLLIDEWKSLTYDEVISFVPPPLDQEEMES
What is called pIC50 is −log10 of the IC50, conventionally taken in molar units. Turning to `Cc1ccc(C(=O)NC2CC2)cc1-n1ccnc(NCc2cc(C(F)(F)F)cc(C(F)(F)F)c2)c1=O` [Example 99, 3-[3-[[[3,5-Bis(trifluoromethyl)phenyl]methyl]amino]-2-oxo-1(2H)-pyrazinyl]-N-cyclopropyl-4-methyl-benzamide], the pIC50 is 7.1.

On to `Cc1ccc(C(=O)NC2CC2)cc1-n1ccnc(N[C@@H](c2ccccc2)C2CCNCC2)c1=O` [Example 101, N-Cyclopropyl-4-methyl-3-[2-oxo-3-[[(R)-phenyl-4-piperidinylmethyl]amino]-1(2H)-pyrazinyl]-benzamide, trifluoroacetate], for which the negative logarithm of the IC50 (pIC50) was 7.4.

Turning to `Cc1ccc(C(=O)NC2CC2)cc1-n1ccnc(N[C@@H](c2ccccc2)C2CCN(C(=O)OCc3ccccc3)CC2)c1=O` [Example 102, 4-[(R)-[[4-[5-[(Cyclopropylamino)carbonyl]-2-methylphenyl]-3,4-dihydro-3-oxopyrazinyl]amino]phenylmethyl]-1-piperidinecarboxylic acid, phenylmethyl ester], the pIC50 amounted to 6.3.

Turning to `Cc1ccc(C(=O)NC2CC2)cc1-n1ccnc(N[C@H](c2ccccc2)C2CCNCC2)c1=O` [Example 103, N-Cyclopropyl-4-methyl-3-[2-oxo-3-[[(S)-phenyl-4-piperidinylmethyl]amino]-1(2H)-pyrazinyl]-benzamide trifluoroacetate], the pIC50 was determined as 6.1.

`Cc1ccc(C(=O)NC2CC2)cc1-n1cc(C#N)nc(NCc2ccccc2)c1=O` [Example 104, 3-[5-Cyano-2-oxo-3-[(phenylmethyl)amino]-1(2H)-pyrazinyl]-N-cyclopropyl-4-methyl-benzamide]: the pIC50 is on record as 7.2.

Regarding `Cc1ccc(C(=O)NC2CC2)cc1-n1cc(CN(C)C)nc(NCc2ccccc2)c1=O` [Example 105, N-Cyclopropyl-3-[5-[(dimethylamino)methyl]-2-oxo-3-[(phenylmethyl)amino]-1(2H)-pyrazinyl]-4-methyl-benzamide], the pIC50 is 6.2.

Regarding `Cc1ccc(C(=O)NC2CC2)cc1-n1cc(C(N)=O)nc(NCc2ccccc2)c1=O` [Example 106, 4-[5-[(Cyclopropylamino)carbonyl]-2-methylphenyl]-4,5-dihydro-5-oxo-6-[(phenylmethyl)amino]-2-pyrazinecarboxamide], the pIC50 is listed as 6.2.

For `Cc1ccc(C(=O)NC2CC2)cc1-n1cc(Cl)nc(N2CCN(C)CC2)c1=O` [Example 107, 3-[5-Chloro-3-(4-methyl-1-piperazinyl)-2-oxo-1(2H)-pyrazinyl]-N-cyclopropyl-4-methyl-benzamide], the negative logarithm of the IC50 (pIC50) is recorded as 6.1.

With `Cc1ccc(C(=O)NC2CC2)cc1-n1cc(Cl)nc(NCCCN(C)C)c1=O` [Example 108, 3-[5-Chloro-3-[[3-(dimethylamino)propyl]amino]-2-oxo-1(2H)-pyrazinyl]-N-cyclopropyl-4-methyl-benzamide], the pIC50 stood at 6.3.

For `Cc1ccc(C(=O)NC2CC2)cc1-n1cc(Cl)nc(NCc2ccccc2)c1=O` [Example 109, 3-[5-Chloro-2-oxo-3-[(phenylmethyl)amino]-1(2H)-pyrazinyl]-N-cyclopropyl-4-methyl-benzamide], the pIC50 is 7.2.

In the case of `Cc1ccc(C(=O)NC2CC2)cc1-n1cc(Cl)nc(NCCc2ccccc2)c1=O` [Example 110, 3-[5-Chloro-2-oxo-3-[(2-phenylethyl)amino]-1(2H)-pyrazinyl]-N-cyclopropyl-4-methyl-benzamide], the pIC50 is recorded as 6.7.

For `CONC(=O)c1ccc(C)c(-n2ccnc(NCc3ccccc3CN3CCN(C)CC3)c2=O)c1` [Example 111, N-Methoxy-4-methyl-3-[3-[[[2-[(4-methyl-1-piperazinyl)methyl]phenyl]methyl]amino]-2-oxo-1(2H)-pyrazinyl]-benzamide], the pIC50 is 7.1.

Regarding `CONC(=O)c1ccc(C)c(-n2ccnc(NC(C)(C)c3ccccc3)c2=O)c1` [Example 112, N-Methoxy-4-methyl-3-[3-[(1-methyl-1-phenylethyl)amino]-2-oxo-1(2H)-pyrazinyl]], the negative-log IC50 (pIC50) is on record as 9.4.

Regarding `CC[C@@H](Nc1nccn(-c2cc(C(=O)NOC)ccc2C)c1=O)c1ccccc1` [Example 113, N-Methoxy-4-methyl-3-[2-oxo-3-[[(1R)-1-phenylpropyl]amino]-1(2H)-pyrazinyl]-benzamide, trifluoroacetate], the pIC50 worked out at 9.8.

Take `Cc1ccc(C(=O)NC2CC2)cc1-n1ccnc(-c2ccccc2)c1=O` [Example 114, N-Cyclopropyl-4-methyl-3-(2-oxo-3-phenyl-1(2H)-pyrazinyl)-benzamide]: the pIC50 turned out to be 6.6.

Take `CCNC(=O)c1ccc(C)c(-n2ccnc(NCc3ccccc3)c2=O)c1` [Example 115, N-Ethyl-4-methyl-3-[2-oxo-3-[(phenylmethyl)amino]-1(2H)-pyrazinyl]-benzamide]: the pIC50 was determined as 6.9.

As to `Cc1ccc(C(=O)NC2CC2)cc1-n1ccnc(Oc2ccccc2)c1=O` [Example 116, N-Cyclopropyl-4-methyl-3-(2-oxo-3-phenoxy-1(2H)-pyrazinyl)-benzamide], the pIC50 turned out to be 6.4.

Take `Cc1ccc(C(=O)NC2CC2)cc1-n1ccnc(Sc2ccccc2)c1=O` [Example 117, N-Cyclopropyl-4-methyl-3-[2-oxo-3-(phenylthio)-1(2H)-pyrazinyl]-benzamide]: the negative-log IC50 (pIC50) amounted to 6.8.

For the compound `Cc1ccc(C(=O)NC2CC2)cc1-n1ccnc(SCc2ccccc2)c1=O` [Example 118], the pIC50 was found to be 7.3.

Consider `Cc1ccc(C(=O)NC2CC2)cc1-n1ccnc(N2CCN(C)CC2c2ccccc2)c1=O` (centres unmarked) [Example 119, N-Cyclopropyl-4-methyl-3-[3-(4-methyl-2-phenyl-1-piperazinyl)-2-oxo-1(2H)-pyrazinyl]-benzamide], for which the negative logarithm of the IC50 (pIC50) is reported as 6.6.

On to `Cc1ccc(C(=O)NC2CC2)cc1-n1cc(Br)nc(N2CCN(C)CC2c2ccccc2)c1=O` (centres unmarked) [Example 120, 3-[5-bromo-3-(4-methyl-2-phenyl-1-piperazinyl)-2-oxo-1(2H)-pyrazinyl]-N-cyclopropyl-4-methyl-benzamide], for which the pIC50 amounted to 6.4.

Turning to `Cc1ccc(C(=O)NC2CC2)cc1-n1ccnc(N(CCN(C)C)Cc2ccccc2)c1=O` [Example 121, N-Cyclopropyl-3-[3-[[2-(dimethylamino)ethyl](phenylmethyl)amino]-2-oxo-1(2H)-pyrazinyl]-4-methyl-benzamide], the negative-log IC50 (pIC50) is 6.

With `Cc1ccc(C(=O)N2CCCC2)cc1-n1cc(Br)nc(N2CCN(CCN3CCCC3)C(c3ccccc3)C2)c1=O` (centres unmarked) [Example 122, 1-[3-[5-Bromo-2-oxo-3-[3-phenyl-4-[2-(1-pyrrolidinyl)ethyl]-1-piperazinyl]-1(2H)-pyrazinyl]-4-methylbenzoyl]-pyrrolidine], the negative-log IC50 (pIC50) was 5.6.

`Cc1ccc(C(=O)NC2CC2)cc1-n1ccnc(N2CCN(CCN3CCCC3)C(c3ccccc3)C2)c1=O` (centres unmarked) [Example 123, N-Cyclopropyl-4-methyl-3-[2-oxo-3-[3-phenyl-4-[2-(1-pyrrolidinyl)ethyl]-1-piperazinyl]-1(2H)-pyrazinyl]-benzamide]: the negative-log IC50 (pIC50) amounted to 7.

In the case of `Cc1ccc(C(=O)NC2CC2)cc1-n1ccnc(NCc2cccc(CN)c2)c1=O` [Example 124, 3-[3-[[[3-(Aminomethyl)phenyl]methyl]amino]-2-oxo-1(2H)-pyrazinyl]-N-cyclopropyl-4-methyl-benzamide], the negative-log IC50 (pIC50) stood at 6.9.

As to `Cc1ccc(C(=O)NC2CC2)cc1-n1ccnc(NCc2ccc(CN)cc2)c1=O` [Example 125, 3-[3-[[[4-(Aminomethyl)phenyl]methyl]amino]-2-oxo-1(2H)-pyrazinyl]-N-cyclopropyl-4-methyl-benzamide], the pIC50 was found to be 6.2.

With `CONC(=O)c1ccc(C)c(-n2ccnc(N3CCNC(c4ccccc4)C3)c2=O)c1` (centres unmarked) [Example 126, N-Methoxy-4-methyl-3-[2-oxo-3-(3-phenyl-1-piperazinyl)-1(2H)-pyrazinyl]-benzamide], the pIC50 worked out at 8.1.

Regarding `CONC(=O)c1ccc(C)c(-n2ccnc(C3CCCC3)c2=O)c1` [Example 127, 3-(3-cyclopentyl-2-oxo-1(2H)-pyrazinyl)-N-methoxy-4-methyl-benzamide], the pIC50 amounted to 7.3.

For `CSc1ccccc1CNc1nccn(-c2cc(C(=O)NC3CC3)ccc2C)c1=O` [Example 128, N-Cyclopropyl-4-methyl-3-[3-[[[2-(methylthio)phenyl]methyl]amino]-2-oxo-1(2H)-pyrazinyl]-benzamide], the negative logarithm of the IC50 (pIC50) was 8.2.

As to `Cc1ccc(C(=O)NC2CC2)cc1-n1ccnc(NCc2ccccc2Cl)c1=O` [Example 129, 3-[3-[[(2-Chlorophenyl)methyl]amino]-2-oxo-1(2H)-pyrazinyl]-N-cyclopropyl-4-methyl-benzamide], the pIC50 amounted to 7.7.

Regarding `Cc1ccc(C(=O)NC2CC2)cc1-n1ccnc(NCc2cccc(Cl)c2)c1=O` [Example 130, 3-[3-[[(3-Chlorophenyl)methyl]amino]-2-oxo-1(2H)-pyrazinyl]-N-cyclopropyl-4-methyl-benzamide], the pIC50 turned out to be 8.2.

Consider `CONC(=O)c1ccc(C)c(-n2ccnc(N3CCCC3)c2=O)c1` [Example 132, N-Methoxy-4-methyl-3-[2-oxo-3-(1-pyrrolidinyl)-1(2H)-pyrazinyl]-benzamide], for which the pIC50 turned out to be 7.5.

For `Cc1ccc(C(=O)NC2CC2)cc1-n1ccnc(NCCc2ccc(OCCN3CCCC3)cc2)c1=O` [Example 133, N-Cyclopropyl-4-methyl-3-[2-oxo-3-[[2-[4-[2-(1-pyrrolidinyl)ethoxy]phenyl]ethyl]amino]-1(2H)-pyrazinyl]-benzamide], the negative-log IC50 (pIC50) turned out to be 6.8.

Turning to `Cc1ccc(C(=O)NC2CC2)cc1-n1ccnc(NC(C)(C)c2ccccc2O)c1=O` [Example 134, N-Cyclopropyl-3-[3-[[1-(2-hydroxyphenyl)-1-methylethyl]amino]-2-oxo-1(2H)-pyrazinyl]-4-methyl-benzamide], the negative logarithm of the IC50 (pIC50) is given as 8.9.

For `Cc1ccc(C(=O)NC2CC2)cc1-n1ccnc(N[C@@H](c2cccc3ccccc23)[C@@H](C)CO)c1=O` [Example 137, N-Cyclopropyl-3-[3-[[(1R,2R)-3-hydroxy-2-methyl-1-(1-naphthalenyl)propyl]amino]-2-oxo-1(2H)-pyrazinyl]-4-methyl-benzamide], the negative-log IC50 (pIC50) is 8.1.
